Source: US20120214862A1, “MODULATION OF FACTOR 7 EXPRESSION” (ISIS Pharmaceuticals, Inc., priority 2009, published 2012)
In the oligonucleotide strings, read from the 5' end, every base follows the letter of its sugar. An asterisk marks phosphorothioate; unmarked linkages are phosphodiester. Other units and linkages are bracketed, terminal groups are in braces. A string of capitals states the bases alone. e = 2'-O-(2-methoxyethyl) (MOE); [5mC] = 5-methylcytosine; d = 2'-deoxy (DNA)

What follows are substances tested on human Factor 7 mRNA (assay: Antisense inhibition of human Factor 7 mRNA in HepB3 cells, lipofectin, 50 nM, real-time RT-PCR). Settings: Example 6 microwalk, nucleobases 15098 to 15122 of SEQ ID NO: 1; HepB3, lipofectin, 50 nM, ~24 h.
Type: cell-based
Summary of the method: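 Readout is percent reduction of Factor 7 message compared with untreated cells, after correction for total RNA content quantified by RIBOGREEN®. Cultures were seeded at 4,000 cells per well and treated for about 24 hours before RNA extraction.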

Substance | % Inhibition (human Factor 7 mRNA) [%]
416479 (antisense eG*eA*e[5mC]*eA*eG*d[5mC]*dA*d[5mC]*dA*d[5mC]*dA*dT*dG*dG*dA*eG*eT*e[5mC]*eA*eG) [compound 416479] | 47

Same assay, conditions: HepB3 cells, lipofectin, 50 nM antisense oligonucleotide, approximately 24 hours, primer probe set RTS 2927, relative to untreated control

Substance | % Inhibition of human Factor 7 mRNA levels [%]
416442 (antisense eA*eG*e[5mC]*eA*eG*dA*dT*dA*dT*dA*dG*dG*dA*d[5mC]*dT*eG*eG*eA*eG*e[5mC]) [compound 416442] | 57
416443 (antisense eG*eA*eG*eG*e[5mC]*dA*dG*dA*dA*dG*d[5mC]*dA*dG*dA*dT*eA*eT*eA*eG*eG) [compound 416443] | 17
416444 (antisense eA*e[5mC]*eA*eG*eT*dT*d[5mC]*d[5mC]*dG*dG*d[5mC]*d[5mC]*d[5mC]*dT*d[5mC]*eG*eA*eA*eG*eG) [compound 416444] | 24
416445 (antisense eT*eA*e[5mC]*eT*eG*d[5mC]*dT*d[5mC]*dA*d[5mC]*dA*dG*d[5mC]*d[5mC]*dG*e[5mC]*e[5mC]*eG*eT*eT) [compound 416445] | 57
416447 (antisense e[5mC]*eA*eT*eG*eG*dA*dT*dA*dT*dT*d[5mC]*dA*dA*d[5mC]*dT*eG*eT*eG*eG*eG) [compound 416447] | 17
416448 (antisense eT*eT*eT*eT*eT*d[5mC]*d[5mC]*dA*d[5mC]*dA*dT*dG*dG*dA*dT*eA*eT*eT*e[5mC]*eA) [compound 416448] | 34
416450 (antisense eG*eG*eT*eT*eT*dG*d[5mC]*dT*dG*dG*d[5mC]*dA*dT*dT*dT*e[5mC]*eT*eT*eT*eT) [compound 416450] | 49
416451 (antisense eG*e[5mC]*e[5mC]*eA*eT*dG*dG*dA*d[5mC]*dA*d[5mC]*dT*d[5mC]*d[5mC]*d[5mC]*e[5mC]*eT*eT*eT*eG) [compound 416451] | 75
416452 (antisense e[5mC]*e[5mC]*eA*eA*e[5mC]*dA*dA*d[5mC]*dA*dG*dG*dA*d[5mC]*d[5mC]*dT*eG*e[5mC]*e[5mC]*eA*eT) [compound 416452] | 19
416453 (antisense eG*eA*eT*eT*eT*dT*dG*dT*d[5mC]*dG*dA*dA*dA*d[5mC]*dA*eG*eT*eG*eG*eG) [compound 416453] | 45
416454 (antisense e[5mC]*eG*eT*eG*e[5mC]*dT*d[5mC]*dG*d[5mC]*d[5mC]*d[5mC]*dA*dG*d[5mC]*dA*e[5mC]*e[5mC]*eG*e[5mC]*eG) [compound 416454] | 56
416456 (antisense e[5mC]*eT*eG*e[5mC]*eG*d[5mC]*d[5mC]*dA*d[5mC]*d[5mC]*d[5mC]*dG*d[5mC]*d[5mC]*dG*eG*e[5mC]*eT*e[5mC]*eT) [compound 416456] | 58
416457 (antisense eG*eG*eA*eT*eG*dA*dT*dG*dA*d[5mC]*d[5mC]*dT*dG*d[5mC]*dG*e[5mC]*e[5mC]*eA*e[5mC]*e[5mC]) [compound 416457] | 48
416458 (antisense eG*eG*e[5mC]*eG*eG*dA*dG*d[5mC]*dA*dG*d[5mC]*dG*d[5mC]*dG*dA*eT*eG*eT*e[5mC]*eG) [compound 416458] | 29
416459 (antisense eT*eG*eG*eT*e[5mC]*dA*dG*dT*dG*dA*dG*dG*dA*d[5mC]*d[5mC]*eA*e[5mC]*eG*eG*eG) [compound 416459] | 23
416460 (antisense e[5mC]*eA*e[5mC]*e[5mC]*eA*d[5mC]*dA*dT*dG*dG*dT*d[5mC]*dA*dG*dT*eG*eA*eG*eG*eA) [compound 416460] | 49
416461 (antisense eG*eA*eA*eG*e[5mC]*dG*d[5mC]*dA*d[5mC]*dG*dA*dA*dG*dG*d[5mC]*e[5mC]*eA*eG*e[5mC]*eG) [compound 416461] | 43
416462 (antisense eG*eG*e[5mC]*eA*eG*dT*d[5mC]*d[5mC]*dT*dG*dG*dG*dT*d[5mC]*dA*eT*e[5mC]*eA*eG*e[5mC]) [compound 416462] | 60
416463 (antisense eT*eG*e[5mC]*eT*eG*d[5mC]*dA*dG*dG*d[5mC]*dA*dG*dT*d[5mC]*d[5mC]*eT*eG*eG*eG*eT) [compound 416463] | 39
416464 (antisense eA*eA*e[5mC]*eA*eT*dG*dT*dA*d[5mC]*dT*d[5mC]*d[5mC]*dG*dT*dG*eA*eT*eA*eT*eT) [compound 416464] | 53
416465 (antisense e[5mC]*eA*e[5mC]*eT*eG*dT*d[5mC]*d[5mC]*d[5mC]*d[5mC]*d[5mC]*dT*dT*dG*d[5mC]*eA*eG*eG*eA*eG) [compound 416465] | 51
416466 (antisense eT*eG*eT*eG*eG*dG*d[5mC]*d[5mC]*dT*d[5mC]*d[5mC]*dA*d[5mC]*dT*dG*eT*e[5mC]*e[5mC]*e[5mC]*e[5mC]) [compound 416466] | 57

Substance | % Inhibition of human Factor 7 mRNA levels [%]
416467 (antisense e[5mC]*e[5mC]*e[5mC]*eT*eG*dG*d[5mC]*d[5mC]*d[5mC]*d[5mC]*dA*dG*d[5mC]*dT*dG*eA*e[5mC]*eG*eA*eT) [compound 416467] | 55
416468 (antisense eT*eG*eG*eG*eA*dG*dA*d[5mC]*d[5mC]*d[5mC]*dT*dG*dG*dT*dG*eT*eA*e[5mC]*eA*e[5mC]) [compound 416468] | 46
416469 (antisense eG*e[5mC]*eA*eG*e[5mC]*d[5mC]*dA*d[5mC]*dT*d[5mC]*dG*dA*dT*dG*dT*eA*e[5mC]*eT*eG*eG) [compound 416469] | 55
416470 (antisense eG*e[5mC]*eT*eT*eT*dT*dG*d[5mC]*dA*dG*d[5mC]*d[5mC]*dA*d[5mC]*dT*e[5mC]*eG*eA*eT*eG) [compound 416470] | 39
416471 (antisense eT*eG*eA*eG*e[5mC]*dT*dT*dT*dT*dG*d[5mC]*dA*dG*d[5mC]*d[5mC]*eA*e[5mC]*eT*e[5mC]*eG) [compound 416471] | 62
416473 (antisense e[5mC]*e[5mC]*e[5mC]*eT*eG*d[5mC]*d[5mC]*d[5mC]*d[5mC]*dT*d[5mC]*dT*dG*dT*d[5mC]*e[5mC]*eA*eG*e[5mC]*eG) [compound 416473] | 61
416474 (antisense eT*eG*eT*e[5mC]*eT*dG*d[5mC]*d[5mC]*dT*d[5mC]*d[5mC]*dA*dG*dG*dA*e[5mC]*eA*eA*e[5mC]*e[5mC]) [compound 416474] | 40
416475 (antisense e[5mC]*eT*e[5mC]*eA*eG*d[5mC]*dT*dG*dG*dG*d[5mC]*dT*dG*dT*d[5mC]*eT*eG*e[5mC]*e[5mC]*eT) [compound 416475] | 70
416476 (antisense eG*e[5mC]*eA*eG*eG*dT*dG*dG*dG*d[5mC]*dT*dT*dG*dG*d[5mC]*eT*eG*eA*eA*eG) [compound 416476] | 58
416478 (antisense eG*eT*e[5mC]*eT*e[5mC]*d[5mC]*dA*dG*d[5mC]*dA*dA*dT*dG*dA*dA*eG*eG*e[5mC]*eA*eG) [compound 416478] | 44
416479 (antisense eG*eA*e[5mC]*eA*eG*d[5mC]*dA*d[5mC]*dA*d[5mC]*dA*dT*dG*dG*dA*eG*eT*e[5mC]*eA*eG) [compound 416479] | 56
416480 (antisense eA*eA*eG*eT*eG*dA*dG*dA*dG*d[5mC]*dT*dA*dA*dA*d[5mC]*eA*eA*e[5mC]*e[5mC]*eG) [compound 416480] | 25
416481 (antisense eA*eG*eA*eT*eG*dA*dT*dA*dA*dT*dG*dG*dA*dT*dA*eA*eG*eA*eA*e[5mC]) [compound 416481] | 15
416482 (antisense e[5mC]*eA*eT*eG*eG*dT*dG*dA*dT*dG*d[5mC]*dT*dT*d[5mC]*dT*eG*eA*eA*eT*eT) [compound 416482] | 64
416483 (antisense eT*eG*eT*eG*eA*dG*dG*dG*dT*dT*d[5mC]*dA*dT*dT*dT*e[5mC]*eA*eG*eT*eG) [compound 416483] | 22
416484 (antisense eT*eA*e[5mC]*eA*eG*d[5mC]*d[5mC]*dT*d[5mC]*dA*dA*dA*d[5mC]*dA*dT*e[5mC]*eT*eA*eT*e[5mC]) [compound 416484] | 0
416485 (antisense eG*eA*eG*e[5mC]*eT*dA*d[5mC]*dA*dG*d[5mC]*d[5mC]*dT*d[5mC]*dA*dA*eA*e[5mC]*eA*eT*e[5mC]) [compound 416485] | 7
416486 (antisense eA*eT*eT*eG*eA*d[5mC]*dA*dA*dG*dG*dG*d[5mC]*dT*dG*dT*eG*eG*e[5mC]*eA*eG) [compound 416486] | 12
416487 (antisense eG*e[5mC]*eA*eG*eG*dT*dG*d[5mC]*dT*d[5mC]*d[5mC]*d[5mC]*dA*dG*dG*eG*eT*e[5mC]*eT*e[5mC]) [compound 416487] | 39
416488 (antisense e[5mC]*eA*eG*eG*eT*d[5mC]*d[5mC]*dT*d[5mC]*d[5mC]*d[5mC]*dA*d[5mC]*dT*dG*e[5mC]*eA*eG*e[5mC]*e[5mC]) [compound 416488] | 41
416489 (antisense eG*eT*eG*e[5mC]*eA*dG*d[5mC]*dT*dT*dG*d[5mC]*d[5mC]*dA*dG*dG*eT*e[5mC]*e[5mC]*eT*e[5mC]) [compound 416489] | 38

Same assay, conditions: HepB3 cells; gapmers targeted to nucleobases 13760 to 13789 of SEQ ID NO: 1 (Table 10)

Substance | % Inhibition of human Factor 7 mRNA levels [%]
416456 (antisense e[5mC]*eT*eG*e[5mC]*eG*d[5mC]*d[5mC]*dA*d[5mC]*d[5mC]*d[5mC]*dG*d[5mC]*d[5mC]*dG*eG*e[5mC]*eT*e[5mC]*eT) [compound 416456] | 50

Same assay, conditions: HepB3 cells; gapmers targeted to nucleobases 15188 to 15211 of SEQ ID NO: 1 (Table 13)

Substance | % Inhibition of human Factor 7 mRNA levels [%]
416482 (antisense e[5mC]*eA*eT*eG*eG*dT*dG*dA*dT*dG*d[5mC]*dT*dT*d[5mC]*dT*eG*eA*eA*eT*eT) [compound 416482] | 64
